Laboratory results from PubChem BioAssay (NCI).
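Test compounds were applied to cells in 96-well plates for 48 hours at 5 doses. TGI: total growth inhibition.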

What was measured:
Assay in all cases: NCI-60 cell line screen, 48 h
786-0 renal = tested on: 786-0 renal
A498 renal = tested on: A498 renal
A549 NSCLC = tested on: A549 NSCLC
ACHN renal = tested on: ACHN renal
BT-549 breast = tested on: BT-549 breast
CAKI-1 renal = tested on: CAKI-1 renal
CCRF-CEM leukemia = tested on: CCRF-CEM leukemia
COLO 205 colon = tested on: COLO 205 colon
DU-145 prostate = tested on: DU-145 prostate
EKVX NSCLC = tested on: EKVX NSCLC
HCC-2998 colon = tested on: HCC-2998 colon
HCT-116 colon = tested on: HCT-116 colon
HCT-15 colon = tested on: HCT-15 colon
HL-60(TB) leukemia = tested on: HL-60(TB) leukemia
HOP-62 NSCLC = tested on: HOP-62 NSCLC
HOP-92 NSCLC = tested on: HOP-92 NSCLC
HS 578T breast = tested on: HS 578T breast
HT29 colon = tested on: HT29 colon
IGROV1 ovarian = tested on: IGROV1 ovarian
K-562 leukemia = tested on: K-562 leukemia
KM12 colon = tested on: KM12 colon
LOX IMVI melanoma = tested on: LOX IMVI melanoma
M14 melanoma = tested on: M14 melanoma
MALME-3M melanoma = tested on: MALME-3M melanoma
MCF7 breast = tested on: MCF7 breast
MDA-MB-231 breast = tested on: MDA-MB-231 breast
MDA-MB-435 = tested on: MDA-MB-435
MDA-N = tested on: MDA-N
MOLT-4 leukemia = tested on: MOLT-4 leukemia
NCI-H226 lung = tested on: NCI-H226 lung
NCI-H23 lung = tested on: NCI-H23 lung
NCI-H460 lung = tested on: NCI-H460 lung
NCI-H522 lung = tested on: NCI-H522 lung
NCI/ADR-RES ovarian = tested on: NCI/ADR-RES ovarian
OVCAR-3 ovarian = tested on: OVCAR-3 ovarian
OVCAR-4 ovarian = tested on: OVCAR-4 ovarian
OVCAR-8 ovarian = tested on: OVCAR-8 ovarian
PC-3 prostate = tested on: PC-3 prostate
RPMI-8226 leukemia = tested on: RPMI-8226 leukemia
RXF 393 renal = tested on: RXF 393 renal
SF-268 CNS = tested on: SF-268 CNS
SF-295 CNS = tested on: SF-295 CNS
SF-539 CNS = tested on: SF-539 CNS
SK-MEL-28 melanoma = tested on: SK-MEL-28 melanoma
SK-MEL-5 melanoma = tested on: SK-MEL-5 melanoma
SK-OV-3 ovarian = tested on: SK-OV-3 ovarian
SN12C renal = tested on: SN12C renal
SNB-19 CNS = tested on: SNB-19 CNS
SR leukemia = tested on: SR leukemia
SW-620 colon = tested on: SW-620 colon
T-47D breast = tested on: T-47D breast
TK-10 renal = tested on: TK-10 renal
U251 CNS = tested on: U251 CNS
UACC-257 melanoma = tested on: UACC-257 melanoma
UACC-62 melanoma = tested on: UACC-62 melanoma
UO-31 renal = tested on: UO-31 renal

Measured: TGI

Cc1nc(C)c(N2CCN(CN)CC2)c(=O)[nH]1
> 100 µM: all assays above
